Source: patent US20050032138A1 (priority 2003, published 2005)
Where two headings read alike, the source gives them in different places.

What was measured:
PrPc [1] = molecular target: PrPc (Mesocricetus auratus, UniProt P04273)
PrPc and PrPsc [2] = system: PrPc and PrPsc
PrPc [3] = molecular target: T1, PrPc (Homo sapiens, UniProt P04156)
PrPc and PrPsc [4] = molecular target: PrPc and PrPsc (Homo sapiens, UniProt P04156)
PrPc [5] = molecular target: T1, PrPc; remark: listed apart in the source
[6] = Fast Red staining with 3F4, red/pink beads indicate bound native PrPc or antibody, scrapie-infected hamster brain homogenate

Chain of PrPc (Mesocricetus auratus, UniProt P04273) (P04273 23-254 limits assumed): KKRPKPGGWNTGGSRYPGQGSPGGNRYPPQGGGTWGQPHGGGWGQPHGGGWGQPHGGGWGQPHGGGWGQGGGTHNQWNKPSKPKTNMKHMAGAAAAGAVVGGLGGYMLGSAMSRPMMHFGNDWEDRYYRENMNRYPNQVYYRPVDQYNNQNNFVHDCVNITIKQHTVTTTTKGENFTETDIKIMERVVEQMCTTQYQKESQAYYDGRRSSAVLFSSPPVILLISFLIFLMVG

| Substance | Bead Color (PrPc [1]) | Intensity of Chemiluminescent Signal after Denaturing (PrPc and PrPsc [2]) | further results |
| --- | --- | --- | --- |
| TGTNRYA | White | Strong | – |
| FQGTREA | White | Strong | – |
| EHATYRA | White | Strong | – |
| LLR | – | – | Beads identified as PrPsc-specific binders (film 2 signal from PrPres after PK) (PrPres): specific for PrPsc |
| EWWETV | White | Medium | – |
| KWATRYA | White | Strong | – |
| RWEREDA | Pink | Strong | – |
| VARENIA | White | Strong | – |
| WEE | – | – | Beads identified as PrPsc-specific binders (film 2 signal from PrPres after PK) (PrPres): specific for PrPsc |
| DVR | White | Strong | Bead colour under the microscope following on-bead detection (PrPc [3]): white; Isoform binding preference concluded from first and second support signals (PrPc and PrPsc [4]): preferentially binds PrPsc; Signal on the second support following denaturation and transfer (PrPc and PrPsc [4]): strong; Signal on the first support (PrPc [5]): weak |
| FPK | – | – | Beads identified as PrPsc-specific binders (film 2 signal from PrPres after PK) (PrPres): specific for PrPsc |
| NSTKFDA | Pink | Strong | – |
| HWK | – | – | Beads identified as PrPsc-specific binders (film 2 signal from PrPres after PK) (PrPres): specific for PrPsc |
| YID | – | Strong | Bead Color (PrPc [1]; [6]): Bright pink |
| SVYQLDA | White | Medium | – |
| RWD | – | Strong | Bead Color (PrPc [1]; [6]): Bright pink |
